Experimental data: article PMC4814904, “Redox proteins of hydroxylating bacterial dioxygenases establish a regulatory cascade that prevents gratuitous induction of tetralin biodegradation genes” (Scientific Reports, 2016)
Like-named read-outs stand apart in the source and are kept apart here. One block for each compound: values may come before it.

Experiments:
[1] = biological target: T1, ThnA4 (ThnA4-His6), NAD(P)H-dependent ferredoxin reductase of tetralin dioxygenase (Sphingopyxis macrogoltabida, UniProt Q8GJE9); assay: UV-visible spectrum after FAD reconstitution; type: binding; settings: 2 mM FAD added during cell disruption; FAD partly lost during purification
T1 construct: full length, 339 residues, C-terminal His6 (pET23b, plasmid pMPO784), E. coli NCM631 host; plant-type [2Fe-2S]; FAD-reconstituted

[2] = biological target: T1, ThnA4 (ThnA4-His6), NAD(P)H-dependent ferredoxin reductase of tetralin dioxygenase; assay: stopped-flow pre-steady-state reduction of ThnA4ox, fit of kA→B; type: biochemical; settings: oxidized enzyme, potassium phosphate 50 mM pH 7.4, NaCl 10 mM, glycerine 5%, 15 °C, hydride donor

T1 sequence (Q8GJE9 entry or part of it): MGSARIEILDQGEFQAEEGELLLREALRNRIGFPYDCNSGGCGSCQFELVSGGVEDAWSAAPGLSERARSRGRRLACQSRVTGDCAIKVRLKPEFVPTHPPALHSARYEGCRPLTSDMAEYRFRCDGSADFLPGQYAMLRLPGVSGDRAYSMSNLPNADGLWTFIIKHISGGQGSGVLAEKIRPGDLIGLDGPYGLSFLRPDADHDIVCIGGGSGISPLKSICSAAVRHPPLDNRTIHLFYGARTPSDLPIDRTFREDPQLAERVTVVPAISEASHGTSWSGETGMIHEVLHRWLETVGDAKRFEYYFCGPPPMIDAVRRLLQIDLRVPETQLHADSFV

SMILES: Cc1cc2nc3c(=O)[nH]c(=O)nc-3n(C[C@H](O)[C@H](O)[C@H](O)COP(=O)(O)OP(=O)(O)OC[C@H]3O[C@@H](n4cnc5c(N)ncnc54)[C@H](O)[C@@H]3O)c2cc1C [FAD]
UV-visible spectrum after FAD reconstitution [1]: reconstituted ThnA4-His6 contains the expected FAD and [2Fe-2S] redox centers

Kd ([2]; upper limit estimated from saturation profile, read-out: Kd^NADH): < 0.4 µM
SMILES: NC(=O)C1=CN([C@@H]2O[C@H](COP(=O)(O)OP(=O)(O)OC[C@H]3O[C@@H](n4cnc5c(N)ncnc54)[C@H](O)[C@@H]3O)[C@@H](O)[C@H]2O)C=CC1 [NADH]

Kd ([2]; read-out: Kd^NADPH): 54 ± 13 µM
SMILES: NC(=O)C1=CN([C@@H]2O[C@H](COP(=O)(O)OP(=O)(O)OC[C@H]3O[C@@H](n4cnc5c(N)ncnc54)[C@H](OP(=O)(O)O)[C@@H]3O)[C@@H](O)[C@H]2O)C=CC1 [NADPH]
